Tests used:
PPM1D1–420 [1] = molecular target: T1, PPM1D1–420 (Homo sapiens, UniProt O15297); assay: Hydrogen–deuterium exchange mass spectrometry (HDX-MS)
T1 construct: PPM1D1–420 was PCR-amplified from the synthesized gene with BsaI sites; His(6)-SUMO (N, cleaved yes); made in house; host or cells: E. coli BL21 (DE3)
T1 sequence (O15297 1-420): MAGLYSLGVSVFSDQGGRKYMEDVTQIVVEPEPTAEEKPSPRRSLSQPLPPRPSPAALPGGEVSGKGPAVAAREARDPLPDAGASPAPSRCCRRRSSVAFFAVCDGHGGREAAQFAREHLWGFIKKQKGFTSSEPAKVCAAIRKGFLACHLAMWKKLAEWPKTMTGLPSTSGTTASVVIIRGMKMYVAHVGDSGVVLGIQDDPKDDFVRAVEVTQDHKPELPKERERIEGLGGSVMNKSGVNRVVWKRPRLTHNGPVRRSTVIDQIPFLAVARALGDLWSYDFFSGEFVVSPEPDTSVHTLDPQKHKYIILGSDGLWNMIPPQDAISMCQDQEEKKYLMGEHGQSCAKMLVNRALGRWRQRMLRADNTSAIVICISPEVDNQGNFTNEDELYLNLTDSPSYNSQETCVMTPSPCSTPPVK
Method: Hydrogen–deuterium exchange in PPM1D proteins (PPM1D1–420, PPM1D∆Flap, and PPM1D∆Hinge) was monitored by incubating 27 pmoles of protein in storage buffer (50 mM Tris HCl pH 7.4, 500 mM NaCl, 10% glycerol, 10 mM MgCl2, 1 mM TCEP, H2O) with a 10-fold molar excess of GSK2830371 (270 pmoles) in DMSO, or 3.85% DMSO as a control. Due to the low solubility of the compound, the exact molar excess was unknown. […] The slow off-rate of the compound likely plays a role in this. The PPM1D:GSK/DMSO mix equilibrated for 15 min at room temperature, followed by the addition of a 15-fold excess of labeling buffer (20 mM HEPES, pD 7.5, 25 mM NaCl, 5 mM MgCl2, 0.1 mM TCEP, D2O) at 25 °C. Analysis of C-terminal truncations of PPM1D were performed without the DMSO and preincubation step. […]
All samples were digested immediately after quench by injecting directly into an M-class nanoAcquity UPLC with HDX technology (Waters) for online digestion with an Enzymate BEH pepsin column [2.1 × 30 mm, 5 μm (Waters)] and UPLC peptide separation. […] Back-exchange was calculated based on deuterium uptake observed in peptides within PPM1D that are solvent accessible, lack structure, and display these characteristics in their uptake profile (high deuterium incorporation that remains a flat line over 4 h time course). […]

PPM1D1–420 [2] = molecular target: T1, PPM1D1–420; assay: Sedimentation velocity analytical ultracentrifugation (SV-AUC); details: PPM1D1–420 15 µM with 3x compound, 2% DMSO
Method: AUC experiments were done using an Optima ultracentrifuge (Beckman Instruments). Proteins were dialyzed at 4 °C prior to each experiment in 20 mM HEPES (pH 7.4), 100 mM NaCl, 5 mM MgCl2, 0.1 mM TCEP. Sedimentation velocity (SV-AUC) experiments were conducted using an An50 Ti rotor at 50,000 rpm and 20 °C following temperature equilibration for 1 h prior to the start of the experiment. […] We, therefore, present these SV-AUC data as relative sedimenting populations with their experimentally observed S values. Absorbance data were collected at 280 nm. SedFIT was used to model the sedimentation coefficient distributions [c(s) analysis] for each experiment[38],[39]. Data were then refined using the c(s) with a conformational change model to better estimate the relative populations observed for PPM1D1–420. SedNTerp was used to calculate protein parameters. Images were generated using GUSSI[41].

How did the “protein in the exposed population (bimodal distribution, residues 270-278) in presence of compound” value (PPM1D1–420 [1]) turn out when `Cc1ncc(Cl)cc1NCc1ccc(C(=O)N[C@@H](CC2CCCC2)C(=O)NC2CC2)s1` [GSK2830371] was run?
Its value is > 95%.

What about the “sedimentation peak (SV-AUC) in presence of compound” value (PPM1D1–420 [2]) of the same compound?
The value was 2.69 S.

— publication PMC9246869, “Allosteric inhibition of PPM1D serine/threonine phosphatase via an altered conformational state” (Nature Communications, 2022)
